{"source": "patent US20260364056A1", "about": "“METHODS OF TREATMENT OF NON-PANCREATIC GASTROINTESTINAL CANCERS” (IONCTURA bv, priority 2023, published 2026)", "key": {"[1]": {"system": "HLF cells", "test": "Cell viability assay (crystal violet)", "assay_type": "cell-based", "description": "Human colorectal adenocarcinoma HT29 and Caco-2 cells, hepatocellular carcinoma HLE cells, cholangiocarcinoma RBE and KKU-M213 cells were purchased from the American […] Culture Collection (ATCC, Manassas, VA, USA). The hepatocellular carcinoma cell line HLF was purchased from JCRB Cell Bank (Japan). All cell lines were cultured in Dulbecco's Modified Eagle Medium (DMEM) supplemented with 10% foetal bovine serum (FBS), 1 mM pyruvate, 25 mM HEPES, 100 U/mL penicillin-streptomycin (all from Thermo Fisher Scientific, Waltham, MA, USA), and maintained in a humidified atmosphere at 37 °C containing 5% CO2. The medium was changed every three days. Oleoyl-LPA was purchased from Avanti Polar Lipids (Birmingham, AL).\nCells were seeded in 96-well plates at a density of 2000 cells/well in 10% FBS supplemented medium. After 24 h, medium was removed, the cells washed with PBS and cultured in the presence or absence of FBS and of different concentrations of Compound land LPA. After the time set for the experiment, the cells were fixed with a 4% PFA solution and stained with 0.02% crystal violet for 10 min. Subsequently the plates have been washed with water to remove excess dye. The cell-bound dye was redissolved in 1% SDS and the optical density was measured at λ=570 with a iMark™ Microplate Absorbance Reader (Bio-rad).\nFIGS. 2A and 2B show the effect of Compound 1 on cell proliferation in the absence of FBS and in the presence of 10% FBS. […] Cells were grown in serum free culture medium or in presence of 10% FBS and incubated with increasing Compound 1 concentrations or with DMSO (control cells) for 24, 48 and 72 hours. After fixation, proliferation was assessed by crystal violet staining method. *P<0.05.\nTo evaluate the anti-proliferative/cytotoxic effects of Compound 1, six different cancer tumour cell lines were treated developed from cholangiocarcinoma (CCA), hepatocellular carcinoma (HCC) and colorectal cancer (CRC), with increasing concentration of the Compound 1 ranging from 10 μM up to 50 μM and at different times of incubation. […]"}, "[2]": {"system": "HLE cells", "test": "Wound healing assay", "assay_type": "cell-based", "conditions": "Homo sapiens, serum-free, read-out: inhibition of cell migration", "description": "(§1) Cells were seeded in a 12-well plate in 10% FBS medium and grown to reach a 80-90% confluence. Then, a scratch was made on the cell monolayer by using a p200 pipette tip. The plate was washed with sterile PBS to remove the debris and on the outer bottom of the plate were created markings with a tip marker, used as reference points. Each cell line was incubated with medium without FBS and containing increasing concentrations of Compound 1 (1-3-9-12 μM). Images were acquired at 0, 24 and 48 h by using a confocal microscope Nikon Eclipse Ti2 in bright field microscope and analysed with image-J. Image-J software was used to measure the scratched area. Cell migratory ability of wound-healing was assessed using the following formula: [(wound area at 0 h)−(wound area at indicated time)]/(wound area at 0 h).\n(§2) Images were taken at time 0, 24 h and 48 h and cell migration into the cell-free region (outlined) was quantified.\n(§3) Tumor progression is characterized by an enhanced cell motility and invasiveness. To expand upon the knowledge of the effects of Compound 1 on HLE, KKU-m213 and HT-29 cells, their migratory activity was assessed when treated with Compound 1 by using both, a wound healing and a transwell migration assay. Cells were seeded in a 12-well plate and, when a confluent monolayer was reached, an artificial gap was generated between the cells using a pipette tip. […]"}, "[3]": {"system": "KKU-M213 cells", "test": "Wound healing assay", "assay_type": "cell-based", "conditions": "Homo sapiens, serum-free, respect to control, after 24 h and 48 h, p<0.05, read-out: reduction in wound closure", "description": "as §1, §2, §3"}, "[4]": {"system": "apoptosis-related proteins", "test": "Human apoptosis antibody array", "assay_type": "cell-based", "conditions": "12 μM, 24 h, vs untreated cells", "description": "The Human Apoptosis Antibody Array Kit (ab134001, Abcam) was used to detect the apoptosis pathway. Briefly, cells were lysed and each membrane was incubated at 4 °C overnight with 500 μg of total extracted protein. Membranes were then washed and incubated overnight at 4 °C with Biotin-conjugated Anti-Cytokines. After an incubation of the membranes with HRP-streptavidin for 2 h at room temperature, chemiluminescence was detected using ChemiDoc XRS+ (Bio-Rad, Hercules, CA, USA). The images were analysed with Image Lab 5.2.1.\nThe representative images were randomly selected from at least 3 independent experiments.\nTo further explore the activity of Compound 1 on gastrointestinal cancer cells, the effectiveness on cell apoptosis was investigated. Following incubation with Compound 1, cells underwent morphological changes of cell shrinkage and cytoplasmic vacuolization (FIG. 1C). An early event in apoptosis is represented by the loss of plasma membrane asymmetry, resulting in the translocation of phosphatidylserine (PS) from the inner to the outer plasma membrane leaflet. Exposed PS on the cell surface can be used to measure apoptosis by the binding with Annexin V. KKU-M213, HLE and HT-29 cells were incubated with increasing concentrations of Compound 1 (3, 9 and 12 μM). After 4 hours, cells were stained with a FITC-Annexin V antibody and fixed. […]"}, "[5]": {"system": "Intrahepatic cholangiocarcinoma cancer cells (patient-derived organoid cultures)", "test": "Patient-derived organoid formation/growth", "assay_type": "cell-based", "conditions": "3, 9 and 12 μm (so in the source), 14 days, compared to vehicle, P<0.001", "description": "To further explore the activity of Compound 1 on gastrointestinal cancer cells, the effectiveness on organoid formation was investigated. Intrahepatic cholangiocarcinoma cancer cells were isolated from tumour tissues, counted and embedded in 96-well plate with Matrigel. After 3D-model formation, three different concentrations of Compound 1 (3, 9 and 12 μm) were tested in these patient-derived organoid (PDO) cultures. […] Scale bars correspond to 50 μm, Data are presented as the mean±SD; ***P<0.001."}, "[6]": {"system": "pancreatic cancer", "conditions": "compared with gemcitabine; cited from earlier work"}, "[7]": {"system": "breast cancer", "conditions": "in vivo; cited from earlier work"}}}
{"smiles": "C[C@H](NC(=O)CCc1nc2cccnc2n1Cc1ccc(OC(F)(F)F)cc1)c1ccc(Cl)cc1", "note": "[Compound 1, N-[(S)-1-(4-chloro-phenyl)-ethyl]-3-[3-(4-trifluoromethoxy-benzyl)-3H-imidazo[4,5-b]pyridin-2-yl]-propionamide]", "values": [{"measurement": "effect on cell proliferation", "setting": "[1]; 1 μM up to 12 μM, 10% FBS, 24, 48 and 72 h", "result": "generally the same as the control"}, {"measurement": "cytotoxic effect / inhibition of cell proliferation", "setting": "[1]; 3 to 12 μM, absence of FBS, evident after 48 h, stronger after 72 h", "result": "significant (p<0.05) cytotoxic effect in a dose-dependent manner"}, {"measurement": "cytotoxic effect", "setting": "[1]; 30 to 50 μM, medium with 10% FBS", "result": "significant (p<0.05) cytotoxic effect"}, {"measurement": "inhibition at 3 µM", "setting": "[2]", "result": 40, "unit": "%"}, {"measurement": "inhibition at 9 µM", "setting": "[3]", "result": "~50", "unit": "%"}, {"measurement": "differential expression of apoptosis-related proteins", "setting": "[4]", "result": "upregulating pro-apoptosic proteins including Bim, Caspase-3 and -8, HTRA, DR6, Fas, p53 and SMAC"}, {"measurement": "organoid growth inhibition", "setting": "[5]", "result": "significant organoid growth inhibition"}, {"measurement": "activity in pancreatic cancer model", "setting": "[6]", "result": "comparable activity with gemcitabine"}, {"measurement": "dissemination of primary tumors", "setting": "[7]", "result": "inhibit the dissemination of primary tumors"}]}
